Data: ChEMBL document CHEMBL1144853, “Arginine binding motifs: design and synthesis of galactose-derived arginine tweezers as galectin-3 inhibitors” (J Med Chem, 2008)

target: Galectin-3 (Homo sapiens, UniProt P17931); assay: Binding affinity to human galectin 3 by Fluorescence polarization assay
Sequence (P17931 whole entry): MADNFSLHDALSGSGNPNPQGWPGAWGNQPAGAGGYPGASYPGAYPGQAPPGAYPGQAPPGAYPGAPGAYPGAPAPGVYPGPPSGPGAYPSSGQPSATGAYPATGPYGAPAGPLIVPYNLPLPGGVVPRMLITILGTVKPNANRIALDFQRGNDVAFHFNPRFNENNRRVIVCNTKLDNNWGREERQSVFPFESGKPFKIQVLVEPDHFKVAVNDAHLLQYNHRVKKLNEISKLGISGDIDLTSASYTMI

In order of rising Kd:
1. CS[C@@H]1O[C@H](CO)[C@H](O)[C@H](NC(=O)c2ccc(C)cc2)[C@H]1OS(=O)(=O)O  87 µM
2. CS[C@@H]1O[C@H](CO)[C@H](O)[C@H](NC(=O)c2ccc(C)cc2)[C@H]1OP(=O)(O)OCc1ccccc1  120 µM
3. CS[C@@H]1O[C@H](CO)[C@H](O)[C@H](NC(=O)c2ccc(C)cc2)[C@H]1O[PH](=O)O  150 µM
4. CS[C@@H]1O[C@H](CO)[C@H](O)[C@H](NC(=O)c2ccc(C)cc2)[C@H]1O  220 µM
5. CS[C@@H]1O[C@H](CO)[C@H](O)[C@H](NC(=O)c2ccc(C)cc2)[C@H]1OC(C)=O  240 µM
6. CS[C@@H]1O[C@H](CO)[C@H](O)[C@H](NC(=O)c2ccc(C)cc2)[C@H]1OP(=O)(O)O  250 µM
7. CS[C@@H]1O[C@H](CO)[C@H](O)[C@H](NC(=O)c2ccc(C)cc2)[C@H]1OC(=O)c1ccccc1  380 µM
8. CS[C@@H]1O[C@H](CO)[C@H](O)[C@H](O)[C@H]1OS(=O)(=O)O  2800 µM
9. CS[C@@H]1O[C@H](CO)[C@H](O)[C@H](O)[C@H]1O  5900 µM
